# Test results taken from US10874643B2 (priority 2015, dated 2020).
# How the values were obtained:
# scn1Lab mutants [1] = assay type: in vivo, zebrafish
# [2] = test system: WT zebrafish exposed to 15 mM pentylenetetrazole; assay: PTZ-induced seizure behavior in wild-type larvae (locomotion); assay type: in vivo; settings: 100 μM; 15 mM PTZ; n=10
# 5-HT1A(h) = target: T1, 5-HT1A(h) (Homo sapiens, UniProt P08908); assay: CEREP BioPrint binding; settings: 1.0E-05M; agonist radioligand
# T1 construct: CEREP (contract assay panel)
# T1 sequence (P08908 1-422): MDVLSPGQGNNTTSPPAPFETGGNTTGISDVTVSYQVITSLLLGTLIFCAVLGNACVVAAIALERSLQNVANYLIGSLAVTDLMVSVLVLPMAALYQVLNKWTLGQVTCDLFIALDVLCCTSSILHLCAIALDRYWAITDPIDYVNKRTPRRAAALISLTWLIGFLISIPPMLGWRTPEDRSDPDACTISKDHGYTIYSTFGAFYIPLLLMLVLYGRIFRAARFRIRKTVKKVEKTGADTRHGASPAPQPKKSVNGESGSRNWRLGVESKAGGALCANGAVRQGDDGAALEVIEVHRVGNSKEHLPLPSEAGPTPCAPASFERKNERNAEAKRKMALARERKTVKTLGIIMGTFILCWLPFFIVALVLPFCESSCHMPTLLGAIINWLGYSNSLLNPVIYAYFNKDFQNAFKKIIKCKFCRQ
# Procedure: (§1) Clemizole (149934-L6) was tested in the CEREP BioPrint Profile, which is apanel of 139 different in vitro receptor binding and enzyme assays. For the initial BioPrint screen, afree compound concentration of 10 μM (LOE-5 M) was used. Compound binding was calculated as a % inhibition of the binding of aradioactively labeled ligand specific for each target. Compound enzyme inhibition effect was calculated as a % inhibition of control enzyme activity. In each experiment, the respective reference compound was tested concurrently with Clemizole (149934-L6), and the data were compared with historical values determined at CEREP. The experiment was accepted in accordance with CEREP's validation Standard Operating Procedure. Results showing an inhibition (or stimulation for assays run in basal conditions) higher than 50% are considered to represent significant effects of the test compounds.
# 5-HT1B(h) = target: T2, 5-HT1B(h) (Homo sapiens, UniProt P28222); assay: CEREP BioPrint binding; settings: 1.0E-05M; agonist radioligand
# T2 construct: CEREP (contract assay panel)
# T2 sequence (P28222 whole entry): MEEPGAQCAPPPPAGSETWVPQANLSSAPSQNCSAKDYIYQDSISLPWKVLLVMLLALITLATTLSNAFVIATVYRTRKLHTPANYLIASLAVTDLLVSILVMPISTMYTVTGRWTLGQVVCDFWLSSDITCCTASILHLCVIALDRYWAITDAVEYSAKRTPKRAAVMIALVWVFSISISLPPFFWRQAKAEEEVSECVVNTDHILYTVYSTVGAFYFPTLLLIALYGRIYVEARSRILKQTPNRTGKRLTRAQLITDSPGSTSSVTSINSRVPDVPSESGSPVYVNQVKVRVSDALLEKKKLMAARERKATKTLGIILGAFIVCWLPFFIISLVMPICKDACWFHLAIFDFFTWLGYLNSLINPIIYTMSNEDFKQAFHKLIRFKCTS
# Procedure: as §1
# 5-HT1D(h) = target: T3, 5-HT1D(h) (Homo sapiens, UniProt P28221); assay: CEREP BioPrint binding; settings: 1.0E-05M; agonist radioligand
# T3 construct: CEREP (contract assay panel)
# T3 sequence (P28221 whole entry): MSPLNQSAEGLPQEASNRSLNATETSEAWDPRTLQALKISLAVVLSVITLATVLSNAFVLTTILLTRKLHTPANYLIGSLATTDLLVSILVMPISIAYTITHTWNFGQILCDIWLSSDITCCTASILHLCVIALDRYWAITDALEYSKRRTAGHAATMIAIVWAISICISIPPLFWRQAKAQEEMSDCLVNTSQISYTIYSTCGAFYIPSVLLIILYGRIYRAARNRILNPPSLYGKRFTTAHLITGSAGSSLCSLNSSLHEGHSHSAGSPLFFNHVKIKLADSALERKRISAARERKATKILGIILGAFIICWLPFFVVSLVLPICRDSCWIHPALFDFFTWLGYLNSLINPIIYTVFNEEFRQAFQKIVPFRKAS
# Procedure: as §1
# 5-HT2A(h) = target: T4, 5-HT2A(h) (Homo sapiens, UniProt P28223); assay: CEREP BioPrint binding; settings: 1.0E-05M; agonist radioligand
# T4 construct: CEREP (contract assay panel)
# T4 sequence (P28223 whole entry): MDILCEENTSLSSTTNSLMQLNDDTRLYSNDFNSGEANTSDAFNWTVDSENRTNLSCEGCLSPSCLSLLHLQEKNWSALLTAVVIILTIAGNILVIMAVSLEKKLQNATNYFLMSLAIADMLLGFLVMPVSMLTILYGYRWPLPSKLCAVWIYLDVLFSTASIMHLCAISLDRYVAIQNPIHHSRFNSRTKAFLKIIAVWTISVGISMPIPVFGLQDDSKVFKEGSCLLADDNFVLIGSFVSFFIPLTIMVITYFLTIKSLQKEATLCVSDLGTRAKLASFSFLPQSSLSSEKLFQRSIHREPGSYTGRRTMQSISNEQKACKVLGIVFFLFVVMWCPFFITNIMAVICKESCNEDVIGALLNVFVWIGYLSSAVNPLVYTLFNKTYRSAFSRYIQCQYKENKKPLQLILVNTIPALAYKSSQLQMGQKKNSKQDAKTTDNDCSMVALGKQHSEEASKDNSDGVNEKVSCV
# Procedure: as §1
# 5-HT2B(h) = target: T5, 5-HT2B(h) (Homo sapiens, UniProt P41595); assay: CEREP BioPrint binding; settings: 1.0E-05M; agonist radioligand
# T5 construct: CEREP (contract assay panel)
# T5 sequence (P41595 whole entry): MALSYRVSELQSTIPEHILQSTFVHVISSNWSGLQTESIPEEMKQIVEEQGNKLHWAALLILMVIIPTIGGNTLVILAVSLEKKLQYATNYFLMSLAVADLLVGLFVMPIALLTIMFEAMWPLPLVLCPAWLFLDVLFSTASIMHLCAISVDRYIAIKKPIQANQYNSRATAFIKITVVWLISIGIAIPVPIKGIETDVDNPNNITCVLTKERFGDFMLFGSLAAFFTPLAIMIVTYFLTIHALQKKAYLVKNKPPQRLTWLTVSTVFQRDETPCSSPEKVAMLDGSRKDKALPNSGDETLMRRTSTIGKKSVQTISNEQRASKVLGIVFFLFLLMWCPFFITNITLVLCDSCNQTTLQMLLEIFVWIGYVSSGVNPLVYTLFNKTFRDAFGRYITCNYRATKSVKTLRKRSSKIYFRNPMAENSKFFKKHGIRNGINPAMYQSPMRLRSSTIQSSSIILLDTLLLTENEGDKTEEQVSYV
# Procedure: as §1
# 5-HT3(h) = target: T6, 5-HT3(h) (Homo sapiens, UniProt P46098); assay: CEREP BioPrint binding; settings: 1.0E-05M; agonist radioligand
# T6 construct: CEREP (contract assay panel)
# T6 sequence (P46098 24-478): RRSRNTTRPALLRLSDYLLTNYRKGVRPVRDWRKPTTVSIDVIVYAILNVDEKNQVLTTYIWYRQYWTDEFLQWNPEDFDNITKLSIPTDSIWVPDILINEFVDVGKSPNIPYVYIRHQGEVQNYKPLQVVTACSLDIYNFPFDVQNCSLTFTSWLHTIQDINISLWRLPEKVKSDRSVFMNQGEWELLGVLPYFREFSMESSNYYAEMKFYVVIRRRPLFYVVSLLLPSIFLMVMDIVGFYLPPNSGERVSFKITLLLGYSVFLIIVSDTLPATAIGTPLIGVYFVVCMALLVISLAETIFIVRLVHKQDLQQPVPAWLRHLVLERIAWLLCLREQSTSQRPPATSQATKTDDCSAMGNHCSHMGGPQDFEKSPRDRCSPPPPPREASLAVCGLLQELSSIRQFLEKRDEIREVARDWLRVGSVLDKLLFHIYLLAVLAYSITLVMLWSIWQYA
# Procedure: as §1
# 5-HT4e(h) = target: T7, 5-HT4e(h) (Homo sapiens, UniProt Q13639); assay: CEREP BioPrint binding; settings: 1.0E-05M; agonist radioligand
# T7 construct: CEREP (contract assay panel)
# T7 sequence (Q13639 1-378 isoform Q13639-5): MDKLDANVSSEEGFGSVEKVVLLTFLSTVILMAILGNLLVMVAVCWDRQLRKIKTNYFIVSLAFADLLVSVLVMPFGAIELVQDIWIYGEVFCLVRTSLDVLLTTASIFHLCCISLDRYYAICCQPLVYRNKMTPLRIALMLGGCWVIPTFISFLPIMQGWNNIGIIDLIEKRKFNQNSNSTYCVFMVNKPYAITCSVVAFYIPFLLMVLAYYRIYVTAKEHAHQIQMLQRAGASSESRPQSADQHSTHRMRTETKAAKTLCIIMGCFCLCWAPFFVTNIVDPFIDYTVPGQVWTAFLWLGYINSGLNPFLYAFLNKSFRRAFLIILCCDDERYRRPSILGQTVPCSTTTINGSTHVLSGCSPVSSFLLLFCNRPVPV
# Procedure: as §1
# BZD (central) = assay: CEREP BioPrint binding; settings: 1.0E-05M; agonist radioligand
# Procedure: as §1
# CB1(h) = target: T8, CB1(h) (Homo sapiens, UniProt P21554); assay: CEREP BioPrint binding; settings: 1.0E-05M; agonist radioligand
# T8 construct: CEREP (contract assay panel)
# T8 sequence (P21554 whole entry): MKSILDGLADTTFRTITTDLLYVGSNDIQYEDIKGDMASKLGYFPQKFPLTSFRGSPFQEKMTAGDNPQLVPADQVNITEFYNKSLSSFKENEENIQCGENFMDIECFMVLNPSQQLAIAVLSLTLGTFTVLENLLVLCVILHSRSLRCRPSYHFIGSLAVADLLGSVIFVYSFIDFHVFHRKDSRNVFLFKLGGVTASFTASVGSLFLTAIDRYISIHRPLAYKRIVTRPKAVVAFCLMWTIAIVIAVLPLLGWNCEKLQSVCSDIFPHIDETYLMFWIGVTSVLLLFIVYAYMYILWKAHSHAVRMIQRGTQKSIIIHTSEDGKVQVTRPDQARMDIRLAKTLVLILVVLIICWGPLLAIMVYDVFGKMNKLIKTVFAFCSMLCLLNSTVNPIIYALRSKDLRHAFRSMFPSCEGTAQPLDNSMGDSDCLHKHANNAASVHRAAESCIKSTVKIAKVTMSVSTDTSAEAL
# Procedure: as §1
# CB2(h) = target: T9, CB2(h) (Homo sapiens, UniProt P34972); assay: CEREP BioPrint binding; settings: 1.0E-05M; agonist radioligand
# T9 construct: CEREP (contract assay panel)
# T9 sequence (P34972 whole entry): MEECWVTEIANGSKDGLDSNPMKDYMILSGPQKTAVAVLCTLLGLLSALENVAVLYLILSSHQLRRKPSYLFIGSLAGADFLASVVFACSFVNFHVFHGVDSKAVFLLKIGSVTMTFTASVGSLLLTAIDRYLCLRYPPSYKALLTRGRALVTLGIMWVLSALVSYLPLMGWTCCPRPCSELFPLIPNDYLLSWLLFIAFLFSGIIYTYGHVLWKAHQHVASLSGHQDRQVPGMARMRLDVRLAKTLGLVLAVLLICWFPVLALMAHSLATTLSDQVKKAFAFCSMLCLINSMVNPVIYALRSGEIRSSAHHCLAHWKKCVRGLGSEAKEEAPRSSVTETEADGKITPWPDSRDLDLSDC
# Procedure: as §1
# GABA transporter = assay: CEREP BioPrint binding; settings: 1.0E-05M
# Procedure: as §1
# GABA-gated Cl channel = assay: CEREP BioPrint binding; settings: 1.0E-05M
# Procedure: as §1
# GABAA1(h) = target: T10, GABAA1(h) (Homo sapiens, UniProt P14867+P47870); assay: CEREP BioPrint binding; settings: 1.0E-05M; agonist radioligand
# T10 construct: CEREP (contract assay panel)
# T10 sequence (P14867 28-456): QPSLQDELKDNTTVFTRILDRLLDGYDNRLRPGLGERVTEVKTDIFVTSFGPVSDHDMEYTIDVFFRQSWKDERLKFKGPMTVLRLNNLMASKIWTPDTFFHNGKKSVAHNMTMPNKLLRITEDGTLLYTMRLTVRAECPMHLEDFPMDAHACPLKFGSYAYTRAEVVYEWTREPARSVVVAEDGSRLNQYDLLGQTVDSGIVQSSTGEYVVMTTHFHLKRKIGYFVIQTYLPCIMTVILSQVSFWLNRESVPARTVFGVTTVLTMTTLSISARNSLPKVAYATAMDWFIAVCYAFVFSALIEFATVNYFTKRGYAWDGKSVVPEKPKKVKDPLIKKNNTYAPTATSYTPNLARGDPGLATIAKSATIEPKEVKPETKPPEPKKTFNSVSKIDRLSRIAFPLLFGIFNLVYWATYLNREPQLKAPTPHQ
# T10 sequence (P47870 25-512 limits assumed): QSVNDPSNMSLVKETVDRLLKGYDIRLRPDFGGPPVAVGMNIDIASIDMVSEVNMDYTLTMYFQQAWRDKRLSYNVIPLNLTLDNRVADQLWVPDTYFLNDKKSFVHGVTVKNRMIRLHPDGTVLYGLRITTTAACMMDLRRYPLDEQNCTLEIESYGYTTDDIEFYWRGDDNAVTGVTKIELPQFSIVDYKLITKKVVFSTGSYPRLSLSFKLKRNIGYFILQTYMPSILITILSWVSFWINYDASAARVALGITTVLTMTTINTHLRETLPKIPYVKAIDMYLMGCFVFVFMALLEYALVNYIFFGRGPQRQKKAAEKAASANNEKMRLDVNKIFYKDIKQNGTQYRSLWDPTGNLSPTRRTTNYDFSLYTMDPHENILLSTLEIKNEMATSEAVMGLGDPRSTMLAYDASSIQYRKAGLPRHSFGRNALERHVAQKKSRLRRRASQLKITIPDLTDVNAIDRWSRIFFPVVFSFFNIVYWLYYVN
# T10 sequence (P18507 40-467 partner limits assumed): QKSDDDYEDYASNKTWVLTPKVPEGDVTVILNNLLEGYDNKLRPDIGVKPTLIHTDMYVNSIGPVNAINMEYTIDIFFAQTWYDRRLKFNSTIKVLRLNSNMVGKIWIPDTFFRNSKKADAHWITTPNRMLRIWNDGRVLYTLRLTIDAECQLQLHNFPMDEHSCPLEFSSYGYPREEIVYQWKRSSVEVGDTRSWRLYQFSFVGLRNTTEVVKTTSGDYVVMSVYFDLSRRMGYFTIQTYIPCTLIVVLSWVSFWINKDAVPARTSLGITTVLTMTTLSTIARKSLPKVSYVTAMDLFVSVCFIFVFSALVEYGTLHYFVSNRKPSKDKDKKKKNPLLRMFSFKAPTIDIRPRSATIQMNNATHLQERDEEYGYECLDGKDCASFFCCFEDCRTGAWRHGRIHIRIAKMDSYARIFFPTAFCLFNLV
# Procedure: as §1
# GABAB(1b)(h) = target: T11, GABAB(1b)(h) (Homo sapiens, UniProt Q9UBS5); assay: CEREP BioPrint binding; settings: 1.0E-05M; agonist radioligand
# T11 construct: CEREP (contract assay panel)
# T11 sequence (Q9UBS5 1-844 isoform Q9UBS5-2): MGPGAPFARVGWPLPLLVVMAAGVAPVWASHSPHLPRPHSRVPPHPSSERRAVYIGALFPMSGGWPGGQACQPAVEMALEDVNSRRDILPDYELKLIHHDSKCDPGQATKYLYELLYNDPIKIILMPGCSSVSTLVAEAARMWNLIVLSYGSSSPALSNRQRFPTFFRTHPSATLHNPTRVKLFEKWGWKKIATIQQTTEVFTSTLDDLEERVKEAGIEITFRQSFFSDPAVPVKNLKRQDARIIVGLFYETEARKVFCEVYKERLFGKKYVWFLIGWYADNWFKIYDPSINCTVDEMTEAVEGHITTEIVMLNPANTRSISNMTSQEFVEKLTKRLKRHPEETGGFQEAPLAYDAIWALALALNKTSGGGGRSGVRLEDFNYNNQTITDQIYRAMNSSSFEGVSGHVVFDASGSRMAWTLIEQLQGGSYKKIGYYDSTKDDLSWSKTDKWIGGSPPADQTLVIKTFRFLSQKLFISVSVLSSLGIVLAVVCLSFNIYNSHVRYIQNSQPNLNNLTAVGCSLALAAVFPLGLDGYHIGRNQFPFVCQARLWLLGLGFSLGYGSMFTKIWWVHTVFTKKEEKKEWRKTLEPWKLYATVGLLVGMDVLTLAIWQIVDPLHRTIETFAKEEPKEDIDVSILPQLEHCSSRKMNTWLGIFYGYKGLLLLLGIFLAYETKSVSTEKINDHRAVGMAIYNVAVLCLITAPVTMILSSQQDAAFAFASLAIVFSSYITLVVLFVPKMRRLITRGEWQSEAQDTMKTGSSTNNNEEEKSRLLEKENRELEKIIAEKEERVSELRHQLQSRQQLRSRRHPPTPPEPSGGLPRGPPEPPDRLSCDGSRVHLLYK
# Procedure: as §1
# SK-Ca channel = assay: CEREP BioPrint binding; settings: 1.0E-05M
# Procedure: as §1
# scn1Lab mutants [3] = assay: Locomotion tracking assay of seizure behavior (96-well format)
smiles,measurement,setting,value
Clc1ccc(Cn2c(CN3CCCC3)nc3ccccc32)cc1 [Clemizole],forebrain electrographic seizure activity in the same mutants after the locomotion assay,"scn1Lab mutants [1]; 100 μM, mutant embedded in agar",effective in suppressing spontaneous seizure activity
same,burst duration,"scn1Lab mutants [1]; clemizole-treated mutants (100 μM), n=7, un-treated mutants 926±414",154 ± 127 ms
same,burst frequency,"scn1Lab mutants [1]; mutants exposed to clemizole first in locomotion assay (100 μM), n=7, un-treated mutants 1.5±0.3",0.2±0.01 bursts/min
same,seizure behavior,[2],effective in reducing seizure behavior
same,"% inhibition of the binding of a radioactively labeled ligand, 5-HT1A(h)",5-HT1A(h),19.5%
same,"% inhibition of the binding of a radioactively labeled ligand, 5-HT1B(h)",5-HT1B(h),4.4%
same,"% inhibition of the binding of a radioactively labeled ligand, 5-HT1D(h)",5-HT1D(h),22.7%
same,"% inhibition of the binding of a radioactively labeled ligand, 5-HT2A(h)",5-HT2A(h),86%
same,"% inhibition of the binding of a radioactively labeled ligand, 5-HT2B(h)",5-HT2B(h),82.5%
same,"% inhibition of the binding of a radioactively labeled ligand, 5-HT3(h)",5-HT3(h),9.8%
same,"% inhibition of the binding of a radioactively labeled ligand, 5-HT4e(h)",5-HT4e(h),−1.0%
same,"% inhibition of the binding of a radioactively labeled ligand, BZD (central)",BZD (central),−19.6%
same,"% inhibition of the binding of a radioactively labeled ligand, CB1(h)",CB1(h),17.9%
same,"% inhibition of the binding of a radioactively labeled ligand, CB2(h)",CB2(h),28.4%
same,"% inhibition of the binding of a radioactively labeled ligand, GABA transporter",GABA transporter,−5.9%
same,"% inhibition of the binding of a radioactively labeled ligand, GABA-gated Cl channel",GABA-gated Cl channel,24.9%
same,"% inhibition of the binding of a radioactively labeled ligand, GABAA1(h)",GABAA1(h),−9.6%
same,"% inhibition of the binding of a radioactively labeled ligand, GABAB(1b)(h)",GABAB(1b)(h),−5.9%
same,"% inhibition of the binding of a radioactively labeled ligand, SK-Ca channel",SK-Ca channel,−0.2%
same,"swim activity / seizure behavior, third evaluation","scn1Lab mutants [3]; 100 μM, 10 fish per trial",effective in suppressing spontaneous seizure activity
same,"seizure-induced swim activity and mean velocity, re-test on separate clutch","scn1Lab mutants [3]; 667, 67 and 6.7 μM",effective in reducing seizure-induced swim activity and mean velocity
same,effect on seizure behavior,"scn1Lab mutants [3]; concentrations between 6.25 and 50 μM, n=33",no significant effect
